The values that follow come from US4699901A, “Diacyl derivatives of glycerylphosphorylcholine, their preparation, and antihyperlipidemic compositions” (Neopharmed SpA, priority 1984, dated 1987).

For assay [1], the system named is cholesterol and triglycerides. The assay can be described thus: hyperlipidemie test induced in the rat by the administration of Triton WR 1330. It is filed as in vivo. The settings on record: Triton induced hyperlipidemia, at the minimum dose of 37.5 mg/kg p.os. From the text: The bis(pyridyl-3-carboxilate) esters of formula (I) show an antidislipemic activity higher than that of nicotinic acid.

The subject of assay [2] is cholesteryl ester hydrolysis and synthesis (acyl-CoA: cholesterol-acyltransferase). The settings on record: cited from earlier work.
The subject of assay [3] is levels of acetylcholine in the cortex. Put plainly: experimental model in the mouse of the presinaptic neurochemical damage of Alzheimer disease (Mantione). It is filed as in vivo. To be noted: Alzheimer model (Mantione et al.).

For `C[N+](C)(C)CCOP(=O)([O-])OC[C@@H](COC(=O)c1cccnc1)OC(=O)c1cccnc1` [optically active form L(alpha), L(alpha) glycerylphosphorylcholine bis(pyridyl-3-carboxilate)], in assay [1], the inhibition of cholesterol worked out at 50% and the inhibition of triglycerides came to 50%.
Consider `CCCCC/C=C\C/C=C\CCCCCCCC(=O)OC[C@H](COP(=O)([O-])OCC[N+](C)(C)C)OC(=O)CCCCCCC/C=C\C/C=C\CCCCC` [polienoic phosphatidylcholine, glyceril phosphorylcholine Dilinoleate], for which, in assay [2], the anti-aterogenic action result is given as “An anti-aterogenic action”, the “hydrolysis of cholesteryl ester” value was “an increase of the hydrolysis of cholesteryl ester” and the “synthesis of cholesteryl esters from acyl-CoA: cholesterol-acyltransferase” value was “a reduction of the synthesis of cholesteryl esters”.
For “L(alpha) glycerylphosphorylcholine bis(pyridyl-3-carboxilate) calcium salt”, the “inhibition of the regional diminution of the levels of acetylcholine in the cortex” value in assay [3] is on record as “inhibits, in a dose-answer form, the regional diminution of the levels of acetylcholine in the cortex”.
